Laboratory results from ChEMBL document CHEMBL1201862, “PubChem BioAssay data set” (2004).
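These data come from cells grown in 96-well plates and exposed to compound for 48 hours at five concentrations. GI50: concentration for 50% inhibition of growth.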 Calls of active or inactive are those of the source. Cut-off read from the data, not from the text of the source: active = GI50 up to about 1.1 µM and inactive = higher.

How the values were obtained:
Assay in all cases: DTP human tumour cell line panel, 48 h
SK-MEL-2 = test system: SK-MEL-2
MOLT-4 = test system: MOLT-4
HT-29 = test system: HT-29
IGROV-1 = test system: IGROV-1
SF-295 = test system: SF-295
HCT-15 = test system: HCT-15
SK-MEL-5 = test system: SK-MEL-5
KM12 = test system: KM12
SNB-75 = test system: SNB-75
CAKI-1 = test system: CAKI-1
K562 = test system: K562
DU-145 = test system: DU-145
SR = test system: SR
SF-268 = test system: SF-268
UACC-257 = test system: UACC-257
U-251 = test system: U-251
LOX IMVI = test system: LOX IMVI
BT-549 = test system: BT-549
SW-620 = test system: SW-620
NCI-H522 = test system: NCI-H522

Compound | GI50 (SK-MEL-2) | GI50 (MOLT-4) | GI50 (HT-29) | GI50 (IGROV-1) | GI50 (SF-295) | GI50 (HCT-15) | GI50 (SK-MEL-5) | GI50 (KM12) | GI50 (SNB-75) | GI50 (CAKI-1) | GI50 (K562) | GI50 (DU-145) | GI50 (SR) | GI50 (SF-268) | GI50 (UACC-257) | GI50 (U-251) | GI50 (LOX IMVI) | GI50 (BT-549) | GI50 (SW-620) | GI50 (NCI-H522)
Fc1cccc(F)c1C1SCc2nc3cc4ccccc4cc3n21 (centres undefined) | > 100 µM (inactive) | 15.3 µM (inactive) | 20.2 µM (inactive) | 21.7 µM (inactive) | 29.7 µM (inactive) | 16 µM | 21.8 µM (inactive) | 34 µM (inactive) | 20.7 µM (inactive) | 88.1 µM (inactive) | 12.1 µM (inactive) | 80.4 µM (inactive) | 17.5 µM (inactive) | 52.2 µM (inactive) | 31.6 µM (inactive) | 30.7 µM (inactive) | 32.9 µM (inactive) | 8.71 µM (inactive) | 49 µM (inactive) | 
Cc1cc(C)c(C)c(-n2[nH]c(=O)n(C)c2=O)c1C | > 100 µM (inactive) | > 100 µM (inactive) | > 100 µM (inactive) | > 100 µM (inactive) | > 100 µM (inactive) | > 100 µM | > 100 µM (inactive) | > 100 µM (inactive) |  | > 100 µM (inactive) | > 100 µM (inactive) | > 100 µM (inactive) | > 100 µM (inactive) | > 100 µM (inactive) | > 100 µM (inactive) | > 100 µM (inactive) | 99.3 µM (inactive) | > 100 µM (inactive) | > 100 µM (inactive) | 
CN(C)CCCNC(CC#N)CCC#N (centres undefined) | > 10 µM (inactive) | > 10 µM (inactive) | > 10 µM (inactive) | > 10 µM (inactive) | > 10 µM (inactive) | > 10 µM | > 10 µM (inactive) | > 10 µM (inactive) | > 10 µM (inactive) | > 10 µM (inactive) | > 10 µM (inactive) | > 10 µM (inactive) |  | > 10 µM (inactive) | > 10 µM (inactive) | > 10 µM (inactive) | > 10 µM (inactive) | > 10 µM (inactive) | > 10 µM (inactive) | > 10 µM (inactive)
COc1ccc(/C=C2\CN(C)CC3C2=NN(c2ccccc2)C3c2ccc(OC)cc2)cc1 (centres undefined) |  | > 100 µM (inactive) | > 100 µM (inactive) | > 100 µM (inactive) | 62.2 µM (inactive) | > 100 µM | > 100 µM (inactive) | > 100 µM (inactive) |  | 60 µM (inactive) | > 100 µM (inactive) | > 100 µM (inactive) |  | > 100 µM (inactive) | > 100 µM (inactive) |  | > 100 µM (inactive) | > 100 µM (inactive) | > 100 µM (inactive) | 72.9 µM (inactive)
O=C(O)CN1CCNCCNCC1 | > 100 µM (inactive) | > 100 µM (inactive) | > 100 µM (inactive) | > 100 µM (inactive) |  | > 100 µM | > 100 µM (inactive) | 59.6 µM (inactive) | 17.5 µM (inactive) | > 100 µM (inactive) | > 100 µM (inactive) | > 100 µM (inactive) | > 100 µM (inactive) |  | > 100 µM (inactive) | > 100 µM (inactive) | > 100 µM (inactive) | > 100 µM (inactive) | > 100 µM (inactive) | 
CCCCCCCCCCCCCCCC(=O)Nc1ccn(C2CCC(COP(=O)(O)OCC3OC(n4cc(F)c(=O)[nH]c4=O)CC3OC(C)=O)O2)c(=O)n1 (centres undefined) | 23.1 µM (inactive) | 9.31 µM (inactive) | 11.2 µM (inactive) | 20.5 µM (inactive) | 6.71 µM (inactive) | 24.9 µM | 13.5 µM (inactive) | 16.6 µM (inactive) | 14.9 µM (inactive) | 4.44 µM (inactive) | 6.15 µM (inactive) | 9.25 µM (inactive) |  | 1.45 µM (inactive) | 14.7 µM (inactive) | 12.1 µM (inactive) | 7.1 µM (inactive) | 2.39 µM (inactive) | 16.9 µM (inactive) | 12.3 µM (inactive)
O=C(O)CC(NC(=O)/C(=C/c1ccccc1)NC(=O)c1ccccc1)C(=O)O (centres undefined) | > 100 µM (inactive) | > 100 µM (inactive) | > 100 µM (inactive) | > 100 µM (inactive) | > 100 µM (inactive) | > 100 µM | > 100 µM (inactive) | > 100 µM (inactive) | > 100 µM (inactive) | > 100 µM (inactive) | > 100 µM (inactive) | > 100 µM (inactive) |  | > 100 µM (inactive) | > 100 µM (inactive) | > 100 µM (inactive) | > 100 µM (inactive) | > 100 µM (inactive) | > 100 µM (inactive) | > 100 µM (inactive)
COc1cc(C2c3cc4c(cc3OC(NN)C2C)OCO4)cc(OC)c1O (centres undefined) | 3.3 µM (inactive) |  | 6.22 µM (inactive) | 5.94 µM (inactive) | 3.85 µM (inactive) | 3.72 µM | 4.13 µM (inactive) | 6.08 µM (inactive) | 4.28 µM (inactive) | 10.4 µM (inactive) | 3.08 µM (inactive) | 15.3 µM (inactive) |  | 28.3 µM (inactive) | 18.5 µM (inactive) | 7.23 µM (inactive) |  | 10.3 µM (inactive) | 4.73 µM (inactive) | 5.96 µM (inactive)
COC(=O)c1c(O)ccc2c1c1c(n2Cc2ccccn2)C(=O)c2ccccc2C1 | 75 µM (inactive) | 95.1 µM (inactive) | 32.8 µM (inactive) | 71 µM (inactive) | > 100 µM (inactive) | > 100 µM | > 100 µM (inactive) | > 100 µM (inactive) | > 100 µM (inactive) | 19.1 µM (inactive) | > 100 µM (inactive) | > 100 µM (inactive) | > 100 µM (inactive) | 74.5 µM (inactive) | 82.8 µM (inactive) | > 100 µM (inactive) | > 100 µM (inactive) | > 100 µM (inactive) | > 100 µM (inactive) | 
O=C(Nc1cccc2ccccc12)c1cc2ccccc2oc1=O | 40.6 µM (inactive) | > 100 µM (inactive) | 28.1 µM (inactive) | 18.5 µM (inactive) |  | > 100 µM | > 100 µM (inactive) | > 100 µM (inactive) | 30.6 µM (inactive) | 48 µM (inactive) | > 100 µM (inactive) | > 100 µM (inactive) | > 100 µM (inactive) | 23.3 µM (inactive) | > 100 µM (inactive) | 34 µM (inactive) | > 100 µM (inactive) | > 100 µM (inactive) | > 100 µM (inactive) | 
O=c1[nH]nc(-c2ccccc2)c2[nH]c3c(c12)CCCc1ccccc1-3 |  | 10.9 µM (inactive) | 11.3 µM (inactive) | 12.5 µM (inactive) | 20.7 µM (inactive) | 2.34 µM | 12.4 µM (inactive) | 10.2 µM (inactive) |  | 22 µM (inactive) | 12.8 µM (inactive) | 17.6 µM (inactive) | 15.1 µM (inactive) | 24.9 µM (inactive) | 18.7 µM (inactive) | 11.4 µM (inactive) | 16.5 µM (inactive) | 20.7 µM (inactive) | 19.1 µM (inactive) | 7.69 µM (inactive)
